Measured values from PMC12169608, “Peptidomimetic Phenoxymethyl Ketone Warheads as Potent Dual-Mode Inhibitors against SARS-CoV‑2 M^pro and Cathepsin” (Journal of Medicinal Chemistry, 2025).
Values after ≈ are worked out from the molar mass of the structure shown. Read-outs that look alike come from different tables or passages of the source.

Key:
[1] = target: T1, human cathepsin L (hCTSL) (Homo sapiens, UniProt P07711); experiment: hCTSL biochemical assay; settings: for hCTSL inhibition, IC50 range in words: biochemical assay
T1 construct: purchased R&D Systems
T1 sequence (P07711 114-333): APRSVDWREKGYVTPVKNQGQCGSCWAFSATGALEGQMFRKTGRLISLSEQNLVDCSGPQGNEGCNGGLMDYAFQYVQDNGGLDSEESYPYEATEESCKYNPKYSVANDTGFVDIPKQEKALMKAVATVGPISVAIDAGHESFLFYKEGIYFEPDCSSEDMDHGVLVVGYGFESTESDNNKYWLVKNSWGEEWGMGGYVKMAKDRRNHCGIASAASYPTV

in vitro [2] = settings: African green monkey
[3] = target: human cathepsin B (hCTSB) (Homo sapiens, UniProt P07858); experiment: hCTSB biochemical assay
physchem [4] = settings: pH 7.4
[5] = target: mouse cathepsin L (mCTSL) (Mus musculus, UniProt P06797); experiment: mCTSL biochemical assay
Chain of mouse cathepsin L (mCTSL) (P06797 114-334): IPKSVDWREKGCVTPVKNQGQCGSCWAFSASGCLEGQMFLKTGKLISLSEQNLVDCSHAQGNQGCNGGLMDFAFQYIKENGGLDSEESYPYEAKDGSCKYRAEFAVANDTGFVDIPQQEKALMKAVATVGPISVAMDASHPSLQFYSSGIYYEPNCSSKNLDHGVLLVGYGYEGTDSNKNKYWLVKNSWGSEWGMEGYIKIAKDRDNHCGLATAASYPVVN

in vitro [6] = settings: mouse, plasma, mouse plasma protein binding
physchem [7] = settings: pH 7.4; remark: listed apart in the source
[8] = target: mouse cathepsin B (mCTSB) (Mus musculus, UniProt P10605); experiment: mCTSB biochemical assay; settings: read-out: pIC50 (mouse CTSB) (converted)
Chain of mouse cathepsin B (mCTSB) (P10605 80-339): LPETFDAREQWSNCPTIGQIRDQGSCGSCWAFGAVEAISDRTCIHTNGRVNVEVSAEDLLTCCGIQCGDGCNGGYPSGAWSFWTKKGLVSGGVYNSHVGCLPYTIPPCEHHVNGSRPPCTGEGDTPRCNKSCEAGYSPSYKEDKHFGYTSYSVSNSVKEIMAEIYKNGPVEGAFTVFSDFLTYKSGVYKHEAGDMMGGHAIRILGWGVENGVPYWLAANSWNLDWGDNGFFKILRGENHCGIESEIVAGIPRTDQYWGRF

SARS-CoV-2 = experiment: microbe, parasite or virus in culture; assay type: cell-based; settings: for EC50: Severe acute respiratory syndrome coronavirus 2, Vero C1008, read-out: SARS-CoV-2 CPE reduction assay pEC50 (converted)
[9] = Mouse hepatocyte stability; settings: mouse, cryopreserved hepatocytes
SARS-CoV-2 M^pro = SARS-CoV-2 M^pro (Severe acute respiratory syndrome coronavirus 2, UniProt P0DTD1); experiment: biochemical; assay type: biochemical; settings: for IC50: read-out: M^pro biochemical assay pIC50 (converted); for M^pro inhibition, IC50 range in words: biochemical assay
in vitro [10] = settings: mouse, hepatocytes; for hepatocyte CLint at 2 h, 2 µM: CLint (mouse hepatocytes)
[11] = microsomes, 10 µM, pH 7.4
[12] = tested on: luciferase-expressing VSV (ΔG) pseudotyped with Spike from SARS-CoV-2; experiment: microbe, parasite or virus in culture; assay type: cell-based; settings: Vesicular stomatitis virus, Vero C1008, read-out: Entry reporter assay pEC50 (converted)
[13] = 3 h, 2 µM
[14] = read-out: pIC50 (mouse CTSL) (converted)

Structure (SMILES) | hCTSL biochemical assay pIC50 [1] | CC50 (in vitro [2]) [nM] | hCTSB biochemical assay pIC50 [3] | logD at 1 h (physchem [4]) | IC50 [5, 14] [nM] | solubility kinetic at 24 h (physchem [7]) [µM] | EC50 (SARS-CoV-2) [nM] | IC50 (SARS-CoV-2 M^pro) [nM] | hepatocyte CLint at 2 h, 2 µM (in vitro [10]) [µL/min/1e6 cells] | EC50 [12] [nM] | mouse plasma protein binding, fraction bound (Fb) [13] [%] | fraction unbound at 3 h, 2 µM (in vitro [6]; fraction bound (Fb)) | fraction unbound at 3 h, 2 µM (in vitro [6]; fraction unbound (Fu)) | also measured
COc1cccc2[nH]c(C(=O)N[C@@H](Cc3cccc(F)c3)C(=O)N[C@@H](CCn3cn[nH]c3=O)C(=O)COc3c(F)c(F)c(C(C)(C)O)c(F)c3F)cc12 [compound 13, N-((S)-3-(3-Fluorophenyl)-1-oxo-1-(((S)-2-oxo-5-(5-oxo-1,5-dihydro-4H-1,2,4-triazol-4-yl)-1-(2,3,5,6-tetrafluoro-4-(2-hydroxypropan-2-yl)phenoxy)pentan-3-yl)amino)propan-2-yl)-4-methoxy-1H-indole-2-carboxamide] | 8.71 | > 10000 | 6.68 | 2.7 | 23.4 | 6.78 (≈ 5.05 µg/mL) | 1660 | 295 | 78.8 | – | – | – | – | fraction unbound at 3 h, 800 µM (in vitro [6]; fraction bound (Fb)): 0.0031; fraction unbound at 3 h, 800 µM (in vitro [6]; fraction unbound (Fu)): 0.0028; IC50 [8]: < 6.92 nM; half-life at 1 µM [9]: 22 min; hepatocyte CLint at 1 µM (in vitro [10]; CLint (mouse hepatocytes + ritonavir 4:1)): 49.3 µL/min/1e6 cells
COc1cccc2[nH]c(C(=O)N[C@@H](Cc3cccc(F)c3)C(=O)N[C@@H](C[C@@H]3CC(=O)NC3=O)C(=O)COc3c(F)c(F)c(CO)c(F)c3F)cc12 [compound 6, N-((S)-1-(((S)-1-((R)-2,5-Dioxopyrrolidin-3-yl)-3-oxo-4-(2,3,5,6-tetrafluoro-4-(hydroxymethyl)phenoxy)butan-2-yl)amino)-3-(3-fluorophenyl)-1-oxopropan-2-yl)-4-methoxy-1H-indole-2-carboxamide] | 7.89 | > 25100 | 6.55 | 3.08 | 97.7 | 20.9 (≈ 15 µg/mL) | 1910 | 6.03 | 156 | – | – | – | – | Peak area (%) by LCMS, mouse liver microsomal stability assay of 1 ([11]; 0 h): 0%; Peak area (%) by LCMS, mouse liver microsomal stability assay of 1 ([11]; 5 min): 2.5%; Peak area (%) by LCMS, mouse liver microsomal stability assay of 1 ([11]; 0.25 h): 10.2%; Peak area (%) by LCMS, mouse liver microsomal stability assay of 1 ([11]; 0.5 h): 19.2%; Peak area (%) by LCMS, mouse liver microsomal stability assay of 1 ([11]; 0.75 h): 23.2%; Peak area (%) by LCMS, mouse liver microsomal stability assay of 1 ([11]; 1 h): 24.9%
COc1cccc2[nH]c(C(=O)N[C@@H](Cc3cccc(F)c3)C(=O)N[C@@H](C[C@@H]3CC(=O)NC3=O)C(=O)COc3c(F)c(F)c(C(C)(C)O)c(F)c3F)cc12 [compound 11] | 7.95 | > 5010 | 5.88 | 2.03 | 316 | 0.88 (≈ 0.655 µg/mL) | 759 | 6.76 | 124 | 8910 | – | – | – | fold less active than 1 in the SARS-CoV-2 CPE reduction assay (SARS-CoV-2): ~6 fold
CCCCCCCC(=O)N[C@@H](Cc1cccc(F)c1)C(=O)N[C@@H](C[C@@H]1CCNC1=O)C(=O)COc1c(F)c(F)c(CO)c(F)c1F [compound 3, N-((S)-3-(3-Fluorophenyl)-1-oxo-1-(((S)-3-oxo-1-((S)-2-oxopyrrolidin-3-yl)-4-(2,3,5,6-tetrafluoro-4-(hydroxymethyl)phenoxy)butan-2-yl)amino)propan-2-yl)octanamide] | 7.39 | > 501 | 7.92 | 2.23 | 75.9 | – | 70.8 | 11.5 | 206 | – | 99.59 | 0.0041 | 0.0041 | –
COc1cccc2[nH]c(C(=O)N[C@@H](Cc3cccc(F)c3)C(=O)N[C@@H](C[C@@H]3CCNC3=O)C(=O)COc3c(F)c(F)cc(F)c3F)cc12 [compound 15, reference compound] | 7.39 | > 1260 | 5.46 | 2.99 | 603 | 1.4 (≈ 0.942 µg/mL) | 39.8 | 5.89 | 240 | – | 99.57 | 0.0043 | 0.0043 | selectivity for M^pro over hCTSL (SARS-CoV-2 M^pro; biochemical assays): ~7 fold
CCCCCCCCCCCCCCCC(=O)N[C@@H](Cc1cccc(F)c1)C(=O)N[C@@H](C[C@@H]1CCNC1=O)C(=O)COc1c(F)c(F)c(CO)c(F)c1F [compound 4, N-((S)-3-(3-Fluorophenyl)-1-oxo-1-(((S)-3-oxo-1-((S)-2-oxopyrrolidin-3-yl)-4-(2,3,5,6-tetrafluoro-4-(hydroxymethyl)phenoxy)butan-2-yl)amino)propan-2-yl)palmitamide] | < 4.30 | > 25100 | 5.11 | – | 10500 | – | 2240 | 3800 | 9.31 | 5620 | – | – | – | hCTSL inhibition, IC50 range in words [1]: only micromolar inhibition; logD (physchem [4]): > 3.5; M^pro inhibition, IC50 range in words (SARS-CoV-2 M^pro): only micromolar inhibition
O=C(N[C@@H](Cc1c[nH]c2ccccc12)C(=O)N[C@@H](C[C@@H]1CCNC1=O)C(=O)COc1c(F)c(F)c(CO)c(F)c1F)c1cc2ccccc2[nH]1 [compound 5, N-((S)-3-(1H-Indol-3-yl)-1-oxo-1-(((S)-3-oxo-1-((S)-2-oxopyrrolidin-3-yl)-4-(2,3,5,6-tetrafluoro-4-(hydroxymethyl)phenoxy)butan-2-yl)amino)propan-2-yl)-1H-indole-2-carboxamide] | 7.64 | > 10000 | 6.54 | 1.5 | 224 | – | 1170 | 41.7 | 182 | 5750 | 98.79 | 0.0121 | 0.0121 | IC50 [8]: 12.3 nM
CC(C)(C)[C@H](NC(=O)C(F)(F)F)C(=O)N1C[C@H]2[C@@H]([C@H]1C(=O)N[C@H](C#N)C[C@@H]1CCNC1=O)C2(C)C [Nirmatrelvir, reference compound] | – | – | – | – | – | – | – | – | – | – | – | – | – | IC50 [5]: > 50100 nM
COc1cccc2[nH]c(C(=O)N[C@@H](Cc3cccc(F)c3)C(=O)N[C@@H](C[C@@H]3CCNC3=O)C(=O)COc3c(F)c(F)c(F)c(F)c3F)cc12 [compound 16, reference compound] | 6.98 | > 251 | 5.82 | 2.95 | 550 | 4.09 (≈ 2.82 µg/mL) | 39.8 | 6.76 | 154 | 676 | 99.33 | 0.0067 | 0.0067 | selectivity for M^pro over hCTSL (SARS-CoV-2 M^pro): ~16 fold
COc1cccc2[nH]c(C(=O)N[C@H](Cc3cccc(F)c3)C(=O)N[C@@H](C[C@@H]3CCNC3=O)C(=O)COc3c(F)c(F)c(CO)c(F)c3F)cc12 [compound 2, N-((R)-3-(3-Fluorophenyl)-1-oxo-1-(((S)-3-oxo-1-((S)-2-oxopyrrolidin-3-yl)-4-(2,3,5,6-tetrafluoro-4-(hydroxymethyl)phenoxy)butan-2-yl)amino)propan-2-yl)-4-methoxy-1H-indole-2-carboxamide] | 4.67 | > 74100 | 5.14 | – | 13500 | – | 21900 | 4270 | – | > 50100 | – | – | – | hCTSL inhibition, IC50 range in words [1]: only micromolar inhibition; fold less active than 1 in the SARS-CoV-2 CPE reduction assay (SARS-CoV-2): ~169 fold; M^pro inhibition, IC50 range in words (SARS-CoV-2 M^pro): only micromolar inhibition
COc1cccc2[nH]c(C(=O)N[C@@H](Cc3cccc(F)c3)C(=O)N[C@@H](C[C@@H]3CC(=O)NC3=O)C(=O)COc3c(F)c(F)c(C(C)O)c(F)c3F)cc12 (stereo partly drawn) [compound 9, N-((2S)-1-(((2S)-1-((R)-2,5-Dioxopyrrolidin-3-yl)-3-oxo-4-(2,3,5,6-tetrafluoro-4-(1-hydroxyethyl)phenoxy)butan-2-yl)amino)-3-(3-fluorophenyl)-1-oxopropan-2-yl)-4-methoxy-1H-indole-2-carboxamide] | 7.65 | > 10000 | 6.09 | 2.6 | 158 | 6.33 (≈ 4.62 µg/mL) | 1200 | 5.5 | 134 | – | – | – | – | –
